{
  "source": "patent US20100129317A1",
  "about": "(priority 2006, published 2010)",
  "key": {"Hantaan virus (HTNV)": {"system": "Hantaan virus (HTNV)", "format": "cell-based"}, "[1]": {"system": "Crimean Congo Hemorraghic fever virus (CCHFV)", "format": "cell-based"}, "Human adenosine kinase [2]": {"molecular_target": "T1, Human adenosine kinase (Homo sapiens, UniProt P55263)", "T1 sequence (P55263 whole entry)": "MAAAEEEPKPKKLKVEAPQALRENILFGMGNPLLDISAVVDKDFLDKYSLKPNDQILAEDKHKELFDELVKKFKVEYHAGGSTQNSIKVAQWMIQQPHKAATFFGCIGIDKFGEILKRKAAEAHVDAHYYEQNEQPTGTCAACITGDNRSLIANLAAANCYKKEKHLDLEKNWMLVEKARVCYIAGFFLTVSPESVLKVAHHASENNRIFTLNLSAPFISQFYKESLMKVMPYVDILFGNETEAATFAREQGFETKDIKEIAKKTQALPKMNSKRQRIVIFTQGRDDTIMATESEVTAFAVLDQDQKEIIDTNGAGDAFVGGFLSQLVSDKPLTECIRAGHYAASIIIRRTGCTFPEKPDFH", "assay": "Adenosine kinase activity with selected nucleoside analogs (conversion to 5'-monophosphate, HPLC)", "format": "biochemical", "conditions": "100 μM of each compound and ATP, 37° C., conversion to 5'-monophosphate by HPLC"}, "[3]": {"system": "GTP levels in human cells", "assay": "Intracellular GTP levels in human cells", "format": "cell-based", "conditions": "for effect of treatment on GTP levels in human cells: 10 μM"}, "influenza A/Udorn/72": {"system": "influenza A/Udorn/72", "format": "cell-based, Influenza A H3N2"}, "human CEM cells": {"system": "human CEM cells", "assay": "Metabolism to phosphorylated intracellular metabolites in human cells"}, "Human adenosine kinase [4]": {"molecular_target": "T1, Human adenosine kinase", "assay": "Radiolabeled TA-18 as substrate for human adenosine kinase", "format": "biochemical", "conditions": "radiolabeled compound, 10 μM"}},
  "note": "Entries after “also recorded” stand apart in the source; their conditions may differ.",
  "data": [
    {"smiles": "O=c1c2ncn([C@@H]3O[C@H](CO)[C@@H](O)[C@H]3O)c2ncn1-c1cccc(F)c1", "note": "[IA-3, N^1-(3-fluorophenyl)-inosine]", "values": [
      {"measurement": "antiviral activity against HTNV", "setting": "Hantaan virus (HTNV)", "result": "showed antiviral activity"}
    ]},
    {"smiles": "Nc1c(C(=O)Nc2cccc(F)c2)ncn1[C@@H]1O[C@H](CO)C(O)C1O", "note": "(stereo partly drawn) [RN-3, 5-amino-4-N-3-fluorophenylcarboxamide-1-β-D-ribofuranosyl-1H-imidazole]", "values": [
      {"measurement": "antiviral activity against HTNV", "setting": "Hantaan virus (HTNV)", "result": "showed activity"}
    ]},
    {"smiles": "O=[N+]([O-])c1ncn([C@@H]2O[C@H](CO)C(O)[C@@H]2O)n1", "note": "(some centres unmarked) [TA-1]", "values": [
      {"measurement": "antiviral activity against CCHFV", "setting": "[1]", "result": "showed antiviral activity"}
    ]},
    {"smiles": "CC(=O)c1ncn([C@@H]2O[C@H](CO)[C@@H](O)[C@H]2O)n1", "note": "[TA-13, 1-(1-β-D-ribofuranosyl-[1,2,4]triazole-3-yl)-ethanone]", "values": [
      {"measurement": "Activity as a percent of ribavirin", "setting": "Human adenosine kinase [2]", "result": "8% of ribavirin"}
    ]},
    {"smiles": "OC[C@H]1O[C@@H](n2cnc(C(O)c3ccccc3)n2)C(O)[C@H]1O", "note": "(stereo partly drawn) [TA-14, 1-(1-β-D-ribofuranosyl-[1,2,4]triazol-3-yl)-phenylmethanol]", "values": [
      {"measurement": "antiviral activity against HTNV", "setting": "Hantaan virus (HTNV)", "result": "showed antiviral activity"}
    ]},
    {"smiles": "C#Cc1ncn([C@@H]2O[C@H](CO)[C@@H](O)[C@H]2O)n1", "note": "[TA-18, 3-ethynyl-1-(β-D-ribofuranosyl)-[1,2,4]triazole]", "values": [
      {"measurement": "effect of treatment on GTP levels in human cells", "setting": "[3]", "result": "decline in GTP levels"},
      {"measurement": "potency of metabolites in reducing GTP levels compared with ribavirin metabolites", "setting": "[3]; inferred from metabolite amounts and GTP decline", "result": "more potent in reducing GTP levels than the ribavirin metabolites"},
      {"measurement": "antiviral activity against influenza", "setting": "influenza A/Udorn/72", "result": "showed antiviral activity"},
      {"measurement": "antiviral activity against HTNV", "setting": "Hantaan virus (HTNV)", "result": "showed antiviral activity"},
      {"measurement": "conversion to phosphorylated metabolites in human cells", "setting": "human CEM cells; human CEM cells, 10 μM", "result": "converted to phosphorylated metabolites"},
      {"measurement": "substrate for human adenosine kinase (radiolabeled TA-18)", "setting": "Human adenosine kinase [4]", "result": "it is a substrate for human adenosine kinase; also recorded: subs ate for human adenosine kinase"},
      {"measurement": "antiviral activity against CCHFV", "setting": "[1]", "result": "showed antiviral activity"},
      {"measurement": "Activity as a percent of ribavirin", "setting": "Human adenosine kinase [2]", "result": "25% of ribavirin"}
    ]},
    {"smiles": "NC(=O)CC(O)c1ncn([C@@H]2O[C@H](CO)[C@@H](O)[C@H]2O)n1", "note": "(stereo partly drawn) [TA-20, 3-(1-β-D-ribofuranosyl-[1,2,4]triazol-3-yl)-3-hydroxypropionamide]", "values": [
      {"measurement": "Activity as a percent of ribavirin", "setting": "Human adenosine kinase [2]", "result": "5% of ribavirin"}
    ]},
    {"smiles": "Nc1ncnc2c1c(I)cn2[C@@H]1O[C@H](CO)[C@@H](O)[C@H]1O", "note": "[iodotubercidin, reference compound]", "values": [
      {"measurement": "effect of adenosine kinase inhibition with iodotubercidin on the decline in GTP levels caused by TA-18", "setting": "[3]", "result": "prevented the decline in GTP levels caused by TA-18"},
      {"measurement": "effect of adenosine kinase inhibition with iodotubercidin on the metabolism of TA-18", "setting": "human CEM cells; human cells", "result": "inhibited the metabolism of TA-18"}
    ]},
    {"smiles": "NC(=O)c1ncn([C@@H]2O[C@H](CO)[C@@H](O)[C@H]2O)n1", "note": "[ribavirin, reference compound]", "values": [
      {"measurement": "effect of treatment on GTP levels in human cells", "setting": "[3]", "result": "decrease in GTP levels"}
    ]}
  ]
}
